[invdT] = inverted (3'-3') thymidine; {TYE665} = TYE665 fluorescent dye
Experiments:
[1] = system: in vitro BBB model (bEnd.3 endothelial monolayer); experiment: Aptamer permeability across in vitro blood brain barrier model (HEY-bEnd.3 co-culture); type: in vitro ADME, mouse; settings: 2 μM in upper compartment, three hours
Protocol: In order to assess the ability of the TfR containing aptamers to pass through an endothelial cell monolayer via receptor mediated transport (RMT) an in vitro model of the BBB was produced as shown schematically in FIG. 1. Transwell inserts (polyethylene terephthalate (PET) with 0.4 μm diameter pores) within a 24-well plate (Corning) were incubated with 100 μL of 50% Collagen IV for 2 hours at 37° C. Flasks of bEnd.3 cells were trypsinised to generate a single-cell suspension, and counted using a haemocytometer and trypan blue to ensure that a sufficient proportion of cells were alive. These were then centrifuged and resuspended in media. Wells were filled with 800 μL of serum-free media and transwell inserts were placed on top. Cells were then seeded in 90 μL of serum-free media at a density of 1×10^6 cells/cm^2 and were allowed to incubate at 37° C. Cells were allowed to settle for 6 hours and then 60 μL of enhanced media (DMEM low glucose: Ham's F12 (1:1), (both serum-free) 550 nM hydrocortisone, 32 μM cAMP, 17.5 μM aminophylline, 1 μM retinoic acid, 5 μg/mL insulin, 2.75 μg/mL transferrin, 2.5 ng/mL sodium selenite, 100 ng/mL bFGF (basic fibroblast growth factor), 20 ng/mL EGF (epidermal growth factor)) (Wuest D M et al (2013) Journal of Neuroscience Methods 212(2):211-21) was added to the transwells. Media in both compartments were replaced the next day with enhanced media in order to supplement the growth of the monolayer.
HEY cells were subcultured and counted using a haemocytometer and trypan blue in order to assess the percentage of living cells. Subsequently, they were diluted in DMEM media at a concentration of 87 500 cells/mL. Media was removed from the bottom compartment of the in vitro BBB model and replaced with 800 μL of the HEY cell solution, seeding at 70 000 cells per well. These were allowed to incubate overnight. Next, media was removed from the upper compartment of the transwells and 100 μL of aptamer at a concentration of 2 μM was pipetted on top of the transwell membrane. […]

[2] = target: T1, native EpCAM protein expressed on the cell surface (HEY cells) (Homo sapiens, UniProt P16422); experiment: Flow cytometry binding assay on HEY cells (EpCAM-positive); settings: for Kd: HEY (EpCAM-positive) cells, flow cytometry, n=3
T1 construct: host or cells: HEY ovarian cancer cells
T1 sequence (P16422 24-314): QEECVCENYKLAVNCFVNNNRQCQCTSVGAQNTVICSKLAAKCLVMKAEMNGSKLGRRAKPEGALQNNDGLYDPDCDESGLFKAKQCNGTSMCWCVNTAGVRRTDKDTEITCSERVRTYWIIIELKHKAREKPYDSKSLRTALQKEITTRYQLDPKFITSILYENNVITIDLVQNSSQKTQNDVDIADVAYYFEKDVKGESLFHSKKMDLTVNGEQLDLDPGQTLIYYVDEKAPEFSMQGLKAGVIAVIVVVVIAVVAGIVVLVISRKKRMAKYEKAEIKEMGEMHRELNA
Protocol: In order to determine the binding affinity (equilibrium dissociation constant KD) of the aptamers. Binding assays were conducted to measure the binding to native EpCAM protein expressed on the cell surface. The aptamers were incubated with the cells at concentrations ranging from 0 nM to 400 nM. These were subsequently analysed by flow cytometry. Aptamers were thawed from storage (−20° C.) prior to use. These were then diluted via serial dilutions with phosphate buffered saline (PBS) in order to achieve the desired concentrations. PBS was supplemented with a MgCl2 concentration appropriate for the aptamer (1 mM for anti-TfR aptamers; 5 mM for conjugate aptamers). Aptamers were then folded into their 3D structures using a thermocycler (85° C. for 5 minutes, slow cooling to 22° C. over 10 minutes and 37° C. for 15 minutes).
Concurrently, subcultured cells were incubated in blocking buffer (PBS with 10% FCS, 1 mg/mL BSA, 0.1 mg/mL tRNA) for 30 minutes. Following centrifugation, blocking buffer was removed and cells were resuspended in binding buffer (PBS with 10% FCS, 1 mg/mL BSA, 0.1 mg/mL tRNA). Cells (50 μL) were then incubated with the aptamers (50 μL) for 30 minutes at 37° C. at a range of concentrations (0 nM, 20 nM, 40 nM, 60 nM, 80 nM, 100 nM, 200 nM, 400 nM). Following this, cells were washed in 100 μL PBS three times before final resuspension for flow cytometry.
Aptamers were incubated with the chosen cell lines (bEnd.3 cells, mouse cells positive for TfR; HEY cells, human ovarian cancer cell line positive for EpCAM; and MOLT4 human cells negative for both TfR and EpCAM) at a range of concentrations. Aptamer-bound cells were analysed using a FACS Canto II flow cytometer (Becton Dickinson), counting 10,000 events for each sample, in order to determine the binding affinity of the aptamers. […] The value for the auto fluorescent 0 nM concentration was subtracted from the other figures to account for background fluorescence (Li N et al (2009) Journal of Proteome Research 8(5):2438-48). The resultant values were then used to determine the dissociation constant (KD) via the Graph Pad Prism 3 software. […]
The binding affinities of aptamers Bi1, Bi2 and Bi3 were determined semi-quantitatively via flow cytometry, using bEnd.3 cells to assess reactivity with TfR, HEY cells to determine EpCAM specificity and the MOLT4 cell line as a negative control. Three independent binding assays were performed for these aptamer against all three cell lines (bEnd.3, HEY and MOLT4). […]

Row | Substance | Internalisation into HEY cells in bottom compartment after incubation on in vitro BBB model [1] | Kd [2] [nM] | Binding to HEY cell line (specific or non-specific) ([2]; flow cytometry binding curve)
1 | 5′-GCGCGGGCCCGCGCTAACGGAGGTTGCGTCCGT-3′ (GCGCGGGCCCGCGCTAACGGAGGTTGCGTCCGN; DNA sequence of aptamer conjugate Bi2; (33)..(33) n is t or 3′ inverted deoxythymidine (dT)) | observed to become internalised into the HEY cells | 205 ± 73.3 | 
2 | 5′-GCGCGGTACCGCGCTAACGGAGGTTGCGTCCGT-3′ (GCGCGGTACCGCGCTAACGGAGGTTGCGTCCGN; listed as DNA, chemistry not given here) [Bi3] | observed to become internalised into the HEY cells | 219 ± 49.2 | 
3 | Bi1: aptamer conjugate based on TfR1 and scrambled EpCAM binding loop, negative control, SEQ ID NO:8 (GCGCGTGCACGCGCTAACGGATTCCTTTTCCGN; listed as DNA, further chemistry not given here) | not observed inside HEY cells | 921 ± 270 | 
4 | TfR3: version of TfR1 with scrambled binding loop sequence, SEQ ID NO:6 (DNA GCGTGGTACCACGC; DNA, 5' {TYE665}, 3' [invdT], backbone not given here) |  |  | clear non-specific binding

Source: patent US10577610B2, “EpCAM aptamers and conjugates thereof” (Deakin University, priority 2015, dated 2020)
